Measurements reported in patent EP0796090B1, “CROSS-LINKED MICROPARTICLES AND THEIR USE AS T[…]” (Elan Drug Delivery Limited, priority 1994, dated 1996).

Test system: HSN cell line
Assay: In vitro cytotoxic activity, MTT assay
Assay type: cell-based, rat
Details: HSN cells; for Emax: Rattus norvegicus, read-out: maximum reduction in cell activity
Procedure: Cytotoxic activity of the drug-microcapsule conjugates of Examples 5 to 7 was measured in vitro. The HSN cell line was used. This is a chemically-induced rat colonic sarcoma, which produces liver tumours in an animal model with a vascular pattern similar to that seen in human colorectal liver metastases. Cell kill was measured indirectly using MTT. This is reduced in active mitochondria to formazan, a coloured metabolite. HSN cells were incubated in multi-well plates to which was added a control dose of drug or drug-microcapsule lysate. After a range of exposure times, MTT was added to the wells and the concentration of formazan measured as an indication of […]. The assay was calibrated for this cell line against a range of known cell numbers.

2-fluoro-5-deoxyuridine [Example 5-FUdR]
maximum reduction in cell activity: approximately 80%

COc1cccc2c1C(=O)c1c(O)c3c(c(O)c1C2=O)C[C@@](O)(C(=O)CO)C[C@@H]3O[C@H]1C[C@H](N)[C@H](O)[C@H](C)O1 [doxorubicin]
steepest part of the dose response curve: ≤ 0.1 µg/mL
Emax: ~80%

CN(Cc1cnc2nc(N)nc(N)c2n1)c1ccc(C(=O)N[C@@H](CCC(=O)O)C(=O)O)cc1 [methotrexate]
Emax: ~80%
